“Also recorded” adds a separate entry of the source. Read-outs that look alike come from different tables or passages of the source.
Key:
Rat hepatocytes [1] = assay: Urea synthesis rate of rat hepatocytes (collagen sandwich) exposed to supplemented citrated human plasma; format: cell-based
Method: (§1) Type I collagen was prepared from Lewis rat tail tendons as previously described in Dunn et al. (supra). […] Six-well culture plates were coated with 0.5 ml of collagen gelling solution and the coated plates were incubated at 37° C. for 1 hour to allow for gelation. The hepatocytes were suspended in culture medium and seeded at a density of 1.0×10^6 cell per well. The standard hepatocyte culture medium consisted of DMEM supplemented with 10% FBS, 0.5 U/ml insulin, 14 ng/ml glucagon, 20 ng/ml EGF, 7.5 μg/ml hydrocortisone, 200 U/ml penicillin, and 200 μg/ml streptomycin. After incubating at 37° C. in a humidified gas mixture of 90% air/10% CO2 for 24 hours, the culture medium was removed and the cells were overlaid with a second 0.5 ml layer of collagen gelling solution to form the collagen sandwich. After gelling for 45 minutes at 37° C., 1 ml of fresh medium was added. Fresh medium (1 ml) was supplied to the cultures daily after removal of the previous day's medium. The hepatocytes were cultured for 6 days in standard culture medium prior to plasma exposure.
(§2) Expired plasma from a blood bank was pooled, aliquoted, and kept frozen until used for experiments. Plasma supplements were prepared in concentrated form and added individually to plasma as described in the following examples.
(§3) In each set of experiments, components of the supplementation to be included or excluded were designated according to the result from prior experiments. On the 7th day after isolation, the culture medium was removed and hepatocytes were fed with 1 ml of plasma. Cells were fed with fresh plasma daily thereafter. Control cultures were maintained in hepatocyte culture medium throughout. For the hormone study only, the 6-day-old collagen double-gel cultures were washed 10 times with unsupplemented DMEM to remove residual hormones in the collagen gel, and twice with medium or plasma identical to the following experimental condition.
(§4) Culture supernatants were collected daily after a 24 hour culture period. […] A standard curve was derived using background culture medium prepared by incubation with an empty collagen gel for the same period as the cell culture, and chromatographically purified rat albumin (Cappel Laboratories). Urea concentration in standard culture medium and in plasma was measured by the specific reaction of diacetyl monoxime with urea (Blood Urea Nitrogen Assay Kit, Sigma Diagnostics).
(§5) Rates of secretion were normalized to the number of cells initially seeded. […] The statistical significance of observed differences was determined by two-way analysis of variance and post hoc Tukey's test. An alpha value of 5% was considered significant.

Rat hepatocytes [2] = assay: Albumin synthesis rate of rat hepatocytes (collagen sandwich) exposed to supplemented citrated human plasma; format: cell-based; settings: for Albumin synthesis (in words) vs plasma with BME amino acid supplementation: 10 mM as only amino acid supplementation of citrated plasma
Method: as §1, §2, §3, §4, §5

[3] = citrated human plasma + 5× medium concentrate, day 5 of plasma exposure, vs fully supplemented plasma

## [Ca+2].[Cl-].[Cl-] [calcium chloride]
Rat hepatocytes [1]
  Effect on urea synthesis of removing (or reducing) the component in the plasma supplementation: significantly less
Rat hepatocytes [2]
  Effect on albumin synthesis of removing (or reducing) the component in the plasma supplementation: significantly less

## NC(=O)CC[C@H](N)C(=O)O [glutamine]
Rat hepatocytes [1]; 10 mM as only amino acid supplementation of citrated plasma, day 5 of plasma exposure
  Urea synthesis rate (in words): maintained
Rat hepatocytes [2]; day 5 of plasma exposure
  Albumin synthesis (in words) vs plasma with BME amino acid supplementation: significantly less albumin

## NCC(=O)O [glycine]
Rat hepatocytes [1]; 10 mM as only amino acid supplementation of citrated plasma, day 5 of plasma exposure, vs BME amino acids
  Decrease of urea synthesis rate: 43%
Rat hepatocytes [2]; day 5 of plasma exposure
  Albumin synthesis (in words) vs plasma with BME amino acid supplementation: significantly less albumin

## C[C@]12CCC(=O)C=C1CC[C@@H]1[C@@H]2[C@@H](O)C[C@@]2(C)[C@H]1CC[C@]2(O)C(=O)CO [hydrocortisone, reference compound]
Rat hepatocytes [2]; [3]
  Effect on albumin synthesis of removing (or reducing) the component in the plasma supplementation: significantly reduced

## [Cl-].[Cl-].[Mg+2] [magnesium chloride]
Rat hepatocytes [1]
  Effect on urea synthesis of removing (or reducing) the component in the plasma supplementation: significantly less
Rat hepatocytes [2]
  Effect on albumin synthesis of removing (or reducing) the component in the plasma supplementation: significantly less

## [Cl-].[K+] [potassium chloride]
Rat hepatocytes [1]; [3]
  Effect on urea synthesis of removing (or reducing) the component in the plasma supplementation: no significant effect
Rat hepatocytes [2]; [3]
  Effect on albumin synthesis of removing (or reducing) the component in the plasma supplementation: no significant effect

## [Cl-].[Na+] [sodium chloride]
Rat hepatocytes [1]; [3]
  Effect on urea synthesis of removing (or reducing) the component in the plasma supplementation: increased; also recorded: enhanced
Rat hepatocytes [2]; [3]
  Effect on albumin synthesis of removing (or reducing) the component in the plasma supplementation: increased; also recorded: enhanced

## glucagon [reference compound]
Rat hepatocytes [1]; [3]
  Effect on urea synthesis of removing (or reducing) the component in the plasma supplementation: decreased significantly
Rat hepatocytes [2]; [3]
  Effect on albumin synthesis of removing (or reducing) the component in the plasma supplementation: significantly reduced

## insulin [reference compound]
Rat hepatocytes [2]; [3]
  Effect on albumin synthesis of removing (or reducing) the component in the plasma supplementation: significantly reduced

From patent publication US20040058309A1, “Plasma supplement and use in liver assist systems” (priority 2003, published 2004)
